Reference: US5972680A, “Glucose transporter vesicle aminopeptidase” (Bayer Corporation, priority 1995, dated 1999)
Where two headings read alike, the source gives them in different places. Where a SMILES comes first, the peptide text is derived from it. The star is where a group is joined. CH2Cl = ClC*

What was measured:
GLUT4 vesicle GTVap = biological target: T1, GLUT4 vesicle GTVap (Rattus norvegicus, UniProt P97629); assay: Relative activity of GLUT4 vesicle GTVap with amino acid β-napthylamide substrates; type: biochemical; settings: GLUT4 vesicle extract; substrate 200 uM
T1 construct: a GLUT4 vesicle extract was prepared as described above and incubated with each substrate; from tissue; host or cells: GLUT4 vesicles immunopurified from the LDM fraction of rat epididymal adipocytes
T1 sequence (P97629 1-1025): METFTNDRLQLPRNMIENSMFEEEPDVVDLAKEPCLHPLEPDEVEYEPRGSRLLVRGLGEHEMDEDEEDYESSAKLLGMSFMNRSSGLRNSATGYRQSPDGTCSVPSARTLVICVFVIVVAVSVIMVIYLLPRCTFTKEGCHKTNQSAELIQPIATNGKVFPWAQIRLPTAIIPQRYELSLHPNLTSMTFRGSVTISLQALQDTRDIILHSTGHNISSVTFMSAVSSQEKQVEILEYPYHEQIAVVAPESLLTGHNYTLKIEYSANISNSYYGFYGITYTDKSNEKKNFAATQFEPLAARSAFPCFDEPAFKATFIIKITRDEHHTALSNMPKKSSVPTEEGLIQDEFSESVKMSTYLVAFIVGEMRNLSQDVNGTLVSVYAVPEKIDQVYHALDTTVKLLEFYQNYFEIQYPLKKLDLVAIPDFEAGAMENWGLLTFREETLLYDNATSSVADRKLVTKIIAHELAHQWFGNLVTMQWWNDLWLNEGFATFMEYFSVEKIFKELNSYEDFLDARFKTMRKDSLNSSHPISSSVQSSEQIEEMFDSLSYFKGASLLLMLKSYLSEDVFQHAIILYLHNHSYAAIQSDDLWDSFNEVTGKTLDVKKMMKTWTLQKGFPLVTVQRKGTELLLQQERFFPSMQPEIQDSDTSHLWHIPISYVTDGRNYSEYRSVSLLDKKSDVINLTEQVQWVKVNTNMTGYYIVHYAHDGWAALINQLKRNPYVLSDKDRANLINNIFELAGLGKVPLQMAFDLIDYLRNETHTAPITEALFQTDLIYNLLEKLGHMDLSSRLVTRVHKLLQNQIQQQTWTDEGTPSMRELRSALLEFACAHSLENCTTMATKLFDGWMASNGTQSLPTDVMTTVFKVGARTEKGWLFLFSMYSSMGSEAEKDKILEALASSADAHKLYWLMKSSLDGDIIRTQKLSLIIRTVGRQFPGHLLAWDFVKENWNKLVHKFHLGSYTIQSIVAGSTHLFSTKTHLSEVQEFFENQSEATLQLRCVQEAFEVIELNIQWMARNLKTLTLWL
Description: Unless otherwise indicated, the GTVaps were solubilized from GLUT4 vesicles, LDM, HDM, and PM using 0.1% Triton X-100 in 20 mM Tris, pH 7.5 at 4° C. for 15 minutes. The insoluble material was pelleted at 20,000×g for 20 minutes and discarded. […] The results are reported as pmoles p-nitroanilide produced per μg protein/hour at 37° C. unless otherwise noted.
To characterize the relative reactivities of GTVap to different amino acid β-napthylamide substrates, a GLUT4 vesicle extract was prepared as described above and incubated with each substrate at a concentration of 200 uM as described above.

GTVap [1] = biological target: T2, GTVap (Rattus norvegicus, UniProt P97629); assay: Relative activity of GTVap with amino acid p-nitroanilide substrates, HDM extract; type: biochemical; settings: substrate 1.6 mM, 37° C.
T2 construct: the GTVaps were solubilized from GLUT4 vesicles, LDM, HDM, and PM using 0.1% Triton X-100; from tissue; host or cells: adipocytes of epididymal fat pads of Sprague-Dawley rats, HDM fraction (Triton X-100 extract)
T2 sequence (P97629 1-1025): T1 sequence (P97629 1-1025)
Description: The […] can be maximally extracted (>95%) from the LDM, HDM, and PM membranous compartments using low concentrations of detergents. Unless otherwise indicated, the […] were solubilized from GLUT4 vesicles, LDM, HDM, and PM using 0.1% Triton X-100 in 20 mM Tris, pH 7.5 at 4° C. for 15 minutes. The insoluble material was pelleted at 20,000×g for 20 minutes and discarded. […] The UV absorbance of the p-nitroanilide product was measured at 405 nm and quantified by comparison to p-nitroanilide standards. The results are reported as pmoles p-nitroanilide produced per μg protein/hour at 37° C. unless otherwise noted. Alternatively, the results are presented as change in OD at 405 nm if the protein was too low to determine (eg column fractions) or a relative comparison was being made. […] To characterize the relative reactivities of GTVap to different amino acid p-nitroanilide substrates, an HDM extract was prepared as described above and incubated with each substrate at a concentration of 1.6 mM as described above.

GTVap [2] = biological target: T2, GTVap; assay: Effect of ions on GTVap activity, Triton X-100 extracts of HDM; type: biochemical
GTVap [3] = biological target: T2, GTVap; assay: Ion stabilization of GTVap activity over time at 4° C.; type: biochemical; settings: HDM extract in 20 mM Tris-HCl pH 7.5 at 4° C.
GTVap [4] = assay: Insulin-stimulated translocation of GTVap to the plasma membrane in rat adipocytes; type: cell-based; settings: insulin 10 nM, 20 minutes at 37° C.
Description: Epididymal fat pads from 125 g Sprague-Dawley rats were removed and immediately placed in KRBH buffer containing 1% BSA, 2.5 mM glucose and 200 nM adenosine. The fat was minced, collagenase was added to 3 mg/ml, and the mixture was incubated at 37° C. for 45 minutes with shaking. The dissociated adipocytes were filtered through a 250 micron nylon screen and washed 3 times (using mild centrifugation) with KRBH containing 1% BSA and 200 nM adenosine. The cells were resuspended in the wash buffer containing 3% BSA.
The membrane fractions PM, HDM and LDM were prepared generally according to Simpson et. al., Biochimica et Biophysica Acta, 763, 393-407 (1983). Isolated adipocytes were homogenized in a chilled Wheaton 55 ml teflon pestle homogenizer for ten strokes. The fat layer was removed following a 10,000×g centrifugation and the remaining material was rehomogenized. The PM fraction was pelleted at 16,000×g and the supernatant was recentrifuged to remove any additional PM. […]
GLUT4 is known to translocate from an intracellular vesicular compartment to the plasma membrane upon insulin stimulation. […] The insulin stimulated and control adipocytes were fractionated into the subcellular compartments and analyzed for GTVap enzyme and protein (Western blot) as previously described.

GTVap [5] = biological target: T2, GTVap; assay: GTVap cleavage of insulin by HDM, mass spectrometry; type: biochemical; settings: HDM 1.8 mg/ml, 120 μg/ml porcine insulin, 37° C., pH 7.5
Description: HDM (1.8 mg/ml) was incubated at 37° C. with 120 μg/ml porcine insulin in 50 mM sodium borate, pH 7.5, containing the following protease inhibitors that were previously shown to have no inhibitory effect on GTVap: 2 mM benzamidine, 2 μM leupeptin, 1 μM pepstatin, 1 mM DFP, and 150 μM PMSF. The reaction was terminated after various incubation times by centrifugation of aliquots at 200,000×g to remove the HDM. The insulin products were detected by mass spectrometry or were first chromatographed on a 2.1×15 cm Beckman Spherisorb C18 column at 0.25 ml/min. in a 4 hour linear gradient of 27% to 31% acetonitrile in 1% TFA adjusted to pH 3.0 with TEA, prior to mass spectroscopic analysis.

GTVap [6] = biological target: T2, GTVap; assay: GTVap inhibition by protease and aminopeptidase inhibitors, leu-p-nitroanilide substrate, HDM extract; type: biochemical; settings: for IC50: HDM enzyme extract, inhibitor added 15 minutes prior to leu-p-nitroanilide substrate
[7] = biological target: GTVap (Glucose Transporter Vesicle aminopeptidase) as present in rat adipocyte HDM and HDM extracts (rat); assay: batch adsorption of solubilised HDM extract on wheat germ lectin-Sepharose
[8] = incubated 15 minutes at 37° C. before leu-p-nitroanilide

NC(Cc1ccccc1)C(=O)Nc1ccc2ccccc2c1 (stereo not drawn) [phenylalanine β-napthylamide]
activity of GLUT4 vesicle GTVap with amino acid-β-napthylamide substrate (GLUT4 vesicle GTVap): 0.9 nmoles/25 uL extract/hr

NCC(=O)Nc1ccc([N+](=O)[O-])cc1 [glycine p-nitroanilide]
activity of GTVap with amino acid-p-nitroanilide substrate (GTVap [1]): 0.08 nmoles/μg protein/hr

N=C(N)NCCCC(N)C(=O)Nc1ccc2ccccc2c1 (stereo not drawn) [arginine β-napthylamide]
activity of GLUT4 vesicle GTVap with amino acid-β-napthylamide substrate (GLUT4 vesicle GTVap): 6.5 nmoles/25 uL extract/hr

[Mn+2] [manganese]
effect of ion on GTVap enzyme activity (GTVap [2]; [8]): optimally activate at μmolar concentrations and inhibit at mmolar concentrations | stabilization of GTVap activity against time dependent inactivation (GTVap [3]): do not stabilize the enzyme

insulin: Insulin (porcine) obtained from Eli Lilly
GTVap translocation (Western blot reactivity) (GTVap [4]): translocates to the plasma membrane | increase of GTVap enzyme activity in the plasma membrane (GTVap [4]): 29% | cleavage of insulin by GTVap (mass spectroscopic analysis) (GTVap [5]): N-terminal residues phenylalanine and valine of the B-subunit of insulin were removed sequentially

c1ccc(-c2ccccn2)nc1 [dipyridyl]
inhibition of GTVap activity (GTVap [6]): > 98%

[Ca] [Calcium]
effect of ion on GTVap enzyme activity (GTVap [2]; [8]): partially activate, but at high μmolar to mmolar ion concentrations | stabilization of GTVap activity against time dependent inactivation (GTVap [3]): stabilizes the enzyme activity

wheat germ lectin-Sepharose 6 MB (tool reagent)
percent of total aminopeptidase activity bound [7]: 93%

CSCCC(N)C(=O)Nc1ccc2ccccc2c1 (stereo not drawn) [methionine β-napthylamide]
activity of GLUT4 vesicle GTVap with amino acid-β-napthylamide substrate (GLUT4 vesicle GTVap): 2.9 nmoles/25 uL extract/hr

[Mg] [magnesium]
effect of ion on GTVap enzyme activity (GTVap [2]; [8]): partially activate, but at high μmolar to mmolar ion concentrations

lithium
effect of ion on GTVap enzyme activity (GTVap [2]; between 1 μM and 10 mM): no effect

CC(C)C[C@H](NC(=O)[C@@H](N)CC(C)C)C(=O)N[C@@H](Cc1ccccc1)C(=O)CCl [Leu-Leu-Phe-chloromethyl ketone] (H-Leu-Leu-Phe-CH2Cl)
IC50 (GTVap [6]): 1000 µM

O=S(=O)(F)Cc1ccccc1 [PMSF, phenylmethylsulfonyl fluoride]
effect on GTVap activity (GTVap [6]): no effect

CC(=O)N[C@@H](CC(C)C)C(=O)N[C@@H](CC(C)C)C(=O)N[C@H](C=O)CCCNC(=N)N [leupeptin, Leupeptin]
effect on GTVap activity (GTVap [6]): no effect

[K+] [potassium]
effect of ion on GTVap enzyme activity (GTVap [2]; between 1 μM and 10 mM): no effect

[Co+2] [cobalt]
effect of ion on GTVap enzyme activity (GTVap [2]; [8]): optimally activate at μmolar concentrations and inhibit at mmolar concentrations | stabilization of GTVap activity against time dependent inactivation (GTVap [3]): do not stabilize the enzyme

CC(C)[C@H](N)C(=O)Nc1ccc([N+](=O)[O-])cc1 [valine p-nitroanilide]
activity of GTVap with amino acid-p-nitroanilide substrate (GTVap [1]): 0.09 nmoles/μg protein/hr

c1cnc2c(c1)ccc1cccnc12 [phenanthroline]
inhibition of GTVap activity (GTVap [6]; at >0.2 mM, relative to inhibitor-free control): > 98%

CCCCC[C@H](CC(=O)NO)C(=O)N[C@H](C(=O)N1CCC[C@H]1CO)C(C)C [actinonin, Actinonin]
IC50 (GTVap [6]): > 1000 µM

O[C@H](CS)[C@H](O)CS (racemic) [Dithiothreitol]
activation at 200 µM (GTVap [6]; at 0.2 mM, read-out: increase of enzyme activity): 20% | inhibition at 5000 µM (GTVap [6]; at 5 mM): 30%

N=C(N)c1ccccc1 [benzamidine, Benzamidine]
effect on GTVap activity (GTVap [6]): no effect

[Zn+2] [Zinc]
effect of ion on GTVap enzyme activity (GTVap [2]; [8]): optimally activate at μmolar concentrations and inhibit at mmolar concentrations | stabilization of GTVap activity against time dependent inactivation (GTVap [3]): do not stabilize the enzyme

CC(C)C[C@H](N)CS [leuthiol, L-leucinethiol]
IC50 (GTVap [6]): 2 µM

O=C(Nc1ccc([N+](=O)[O-])cc1)[C@@H]1CCCN1 [proline p-nitroanilide]
activity of GTVap with amino acid-p-nitroanilide substrate (GTVap [1]): 0.35 nmoles/μg protein/hr
